Measured values from patent US7691858B2, “Kinase inhibitors and methods of use thereof” (TargeGen, Inc., priority 2006, dated 2010).
Entries after “also recorded” stand apart in the source; their conditions may differ.

Tests used:
[1] = tested on: VE-cadherin phosphorylation; experiment: VEGF-induced VE-cadherin phosphorylation in EC (Western blot); format: cell-based; conditions: 10 uM Compound I, EC with VEGF
Experimental: FIG. 3. Inhibition of cell proliferation and signaling. (a) EC were cultured in the presence of vehicle (DMSO) or PI3K inhibitors (all at 10 μM); cell proliferation was assessed either 24 (open bar), 48 (grey bar), or 72 h (black bar) later.
Western blots: Cell cultures were rinsed twice with PBS and then lysed using RIPA buffer (100 mM Tris, 150 mM NaCl, 2 mM CaCl2, 1% deoxycholic acid, 1% Triton X-100, 0.1% SDS, pH 7.5) containing PMSF (2 mM), NaF (500 mM), aprotinin (10 μg/ml), leupeptin (10 μg/ml) and vanadate (1 mM). Tissue samples were placed in ice-cold RIPA buffer and processed to lysates using a FastPrep homogenizer (QBiogene, Carlsbad, Calif.). Lysates were centrifuged at 15,000×g followed by assay for total protein using the bicinchoninic acid method (Pierce Biotechnology, Rockford, Ill.), then loaded at equal protein concentration onto gels for SDS-PAGE electrophoresis and Western blotting. For phosphorylated VE-cadherin detection blots were probed with primary antibody (Santa Cruz Biotechnology, Santa Cruz, Calif.) followed by a chemiluminescent detection system (Pierce Biotechnology). The same techniques were used to detect both phosphorylated and total ERK and Akt, except that primary antibodies were supplied by Cell Signaling Technology (Beverly, Mass.) and BD Biosciences (San Jose, Calif.), respectively.

VEGF-induced edema = experiment: Miles assay, VEGF as agonist; format: in vivo, Sprague-Dawley rats
Experimental: A rodent model of vascular edema, the Miles assay, was used to screen compounds for their ability to inhibit VEGF-induced edema. […] Sprague-Dawley rats were first injected IV with vehicle alone or test agent, followed by IV injection of Evans blue dye, followed by intradermal injections of saline and VEGF (200 ng/injection site) along both shaved flanks.

PKCi = biological target: T1, PKCi (Homo sapiens, UniProt P41743); experiment: Kinase panel screen; format: biochemical; conditions: Compound I and ATP 10 μM
T1 construct: purchased Upstate USA or Invitrogen (commercial screening service)

EphA4 = biological target: T2, EphA4 (Homo sapiens, UniProt P54764); experiment: Kinase panel screen; format: biochemical; conditions: Compound I and ATP 10 μM
T2 construct: purchased Upstate USA or Invitrogen (commercial screening service)

EphB2 = biological target: T3, EphB2 (Homo sapiens, UniProt P29323); experiment: Kinase panel screen; format: biochemical; conditions: Compound I and ATP 10 μM
T3 construct: purchased Upstate USA or Invitrogen (commercial screening service)

MEK1 = biological target: T4, MEK1 (Homo sapiens, UniProt Q02750); experiment: Kinase panel screen; format: biochemical; conditions: Compound I and ATP 10 μM
T4 construct: purchased Upstate USA or Invitrogen (commercial screening service)

ALK4 = biological target: T5, ALK4 (Homo sapiens, UniProt P36896); experiment: Kinase panel screen; format: biochemical; conditions: Compound I and ATP 10 μM
T5 construct: purchased Upstate USA or Invitrogen (commercial screening service)

Fer = biological target: T6, Fer (Homo sapiens, UniProt P16591); experiment: Kinase panel screen; format: biochemical; conditions: Compound I and ATP 10 μM
T6 construct: purchased Upstate USA or Invitrogen (contract screening service)

MINK = biological target: T7, MINK (Homo sapiens, UniProt Q8N4C8); experiment: Kinase panel screen; format: biochemical; conditions: Compound I and ATP 10 μM
T7 construct: purchased Upstate USA or Invitrogen (contract screening service)

MKK4 = MKK4 (Mus musculus, UniProt P47809); experiment: Kinase panel screen; format: biochemical; conditions: Compound I and ATP 10 μM
FGFR2 = biological target: T8, FGFR2 (Homo sapiens, UniProt P21802); experiment: Kinase panel screen; format: biochemical; conditions: Compound I and ATP 10 μM
T8 construct: purchased Upstate USA or Invitrogen (contract screening service)

ASK1 = biological target: T9, ASK1 (Homo sapiens, UniProt Q99683); experiment: Kinase panel screen; format: biochemical; conditions: Compound I and ATP 10 μM
T9 construct: purchased Upstate USA or Invitrogen (contract screening service)

Pyk2 = biological target: T10, Pyk2 (Homo sapiens, UniProt Q14289); experiment: Kinase panel screen; format: biochemical; conditions: Compound I and ATP 10 μM
T10 construct: purchased Upstate USA or Invitrogen (contract screening service)

FGFR4 = biological target: T11, FGFR4 (Homo sapiens, UniProt P22455); experiment: Kinase panel screen; format: biochemical; conditions: Compound I and ATP 10 μM
T11 construct: purchased Upstate USA or Invitrogen (contract screening service)

MSK1 = biological target: T12, MSK1 (Homo sapiens, UniProt O75582); experiment: Kinase panel screen; format: biochemical; conditions: Compound I and ATP 10 μM
T12 construct: purchased Upstate USA or Invitrogen (contract screening service)

Fgr = biological target: T13, Fgr (Homo sapiens, UniProt P09769); experiment: Kinase panel screen; format: biochemical; conditions: Compound I and ATP 10 μM
T13 construct: purchased Upstate USA or Invitrogen (contract screening service)

ROCK-I = biological target: T14, ROCK-I (Homo sapiens, UniProt Q13464); experiment: Kinase panel screen; format: biochemical; conditions: Compound I and ATP 10 μM
T14 construct: purchased Upstate USA or Invitrogen (commercial screening service)

ROCK-II = biological target: T15, ROCK-II (Homo sapiens, UniProt O75116); experiment: Kinase panel screen; format: biochemical; conditions: Compound I and ATP 10 μM
T15 construct: purchased Upstate USA or Invitrogen (commercial screening service)

Flt3 = biological target: T16, Flt3 (Homo sapiens, UniProt P36888); experiment: Kinase panel screen; format: biochemical; conditions: Compound I and ATP 10 μM
T16 construct: purchased Upstate USA or Invitrogen (commercial screening service)

NEK6 = biological target: T17, NEK6 (Homo sapiens, UniProt Q9HC98); experiment: Kinase panel screen; format: biochemical; conditions: Compound I and ATP 10 μM
T17 construct: purchased Upstate USA or Invitrogen (commercial screening service)

PAK4 = biological target: T18, PAK4 (Homo sapiens, UniProt O96013); experiment: Kinase panel screen; format: biochemical; conditions: Compound I and ATP 10 μM
T18 construct: purchased Upstate USA or Invitrogen (commercial screening service)

SAPK2b = biological target: T19, SAPK2b (Homo sapiens, UniProt Q15759); experiment: Kinase panel screen; format: biochemical; conditions: Compound I and ATP 10 μM
T19 construct: purchased Upstate USA or Invitrogen (commercial screening service)

IKKa = biological target: T20, IKKa (Homo sapiens, UniProt O15111); experiment: Kinase panel screen; format: biochemical; conditions: Compound I and ATP 10 μM
T20 construct: purchased Upstate USA or Invitrogen (commercial screening service)

PDGFRa = biological target: T21, PDGFRa (Homo sapiens, UniProt P16234); experiment: Kinase panel screen; format: biochemical; conditions: Compound I and ATP 10 μM
T21 construct: purchased Upstate USA or Invitrogen (commercial screening service)

SAPK3 = biological target: T22, SAPK3 (Homo sapiens, UniProt P53778); experiment: Kinase panel screen; format: biochemical; conditions: Compound I and ATP 10 μM
T22 construct: purchased Upstate USA or Invitrogen (commercial screening service)

PDK1 = biological target: T23, PDK1 (Homo sapiens, UniProt O15530); experiment: Kinase panel screen; format: biochemical; conditions: Compound I and ATP 10 μM
T23 construct: purchased Upstate USA or Invitrogen (commercial screening service)

IRAK4 = biological target: T24, IRAK4 (Homo sapiens, UniProt Q9NWZ3); experiment: Kinase panel screen; format: biochemical; conditions: Compound I and ATP 10 μM
T24 construct: purchased Upstate USA or Invitrogen (contract screening service)

PKA = PKA (Homo sapiens, UniProt P17612); experiment: Kinase panel screen; format: biochemical; conditions: Compound I and ATP 10 μM
TBK1 = biological target: T25, TBK1 (Homo sapiens, UniProt Q9UHD2); experiment: Kinase panel screen; format: biochemical; conditions: Compound I and ATP 10 μM
T25 construct: purchased Upstate USA or Invitrogen (contract screening service)

PKBy = biological target: T26, PKBy (Homo sapiens, UniProt Q9Y243); experiment: Kinase panel screen; format: biochemical; conditions: read-out: Percent Control, PKBy
T26 construct: purchased Upstate USA or Invitrogen (contract screening service)

Yes = Yes (Homo sapiens, UniProt P07947); experiment: Kinase panel screen; format: biochemical; conditions: Compound I and ATP 10 μM
ZAP-70 = biological target: T27, ZAP-70 (Homo sapiens, UniProt P43403); experiment: Kinase panel screen; format: biochemical; conditions: Compound I and ATP 10 μM
T27 construct: purchased Upstate USA or Invitrogen (commercial screening service)

CSK = biological target: T28, CSK (Homo sapiens, UniProt P41240); experiment: Kinase panel screen; format: biochemical; conditions: Compound I and ATP 10 μM
T28 construct: purchased Upstate USA or Invitrogen (commercial screening service)
T28 sequence (P41240 whole entry): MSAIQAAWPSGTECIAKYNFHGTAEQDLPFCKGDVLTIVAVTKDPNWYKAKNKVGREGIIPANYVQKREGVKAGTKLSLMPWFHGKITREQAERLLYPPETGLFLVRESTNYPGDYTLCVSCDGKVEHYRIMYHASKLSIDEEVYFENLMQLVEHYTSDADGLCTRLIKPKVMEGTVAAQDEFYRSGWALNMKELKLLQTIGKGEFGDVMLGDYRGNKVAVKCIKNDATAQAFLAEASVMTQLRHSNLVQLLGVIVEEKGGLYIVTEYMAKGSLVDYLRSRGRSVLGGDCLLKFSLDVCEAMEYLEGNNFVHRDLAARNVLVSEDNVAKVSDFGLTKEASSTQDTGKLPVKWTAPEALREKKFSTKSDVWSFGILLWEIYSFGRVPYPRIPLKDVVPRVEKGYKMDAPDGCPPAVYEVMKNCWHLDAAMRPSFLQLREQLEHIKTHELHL

T7 sequence (Q8N4C8 whole entry): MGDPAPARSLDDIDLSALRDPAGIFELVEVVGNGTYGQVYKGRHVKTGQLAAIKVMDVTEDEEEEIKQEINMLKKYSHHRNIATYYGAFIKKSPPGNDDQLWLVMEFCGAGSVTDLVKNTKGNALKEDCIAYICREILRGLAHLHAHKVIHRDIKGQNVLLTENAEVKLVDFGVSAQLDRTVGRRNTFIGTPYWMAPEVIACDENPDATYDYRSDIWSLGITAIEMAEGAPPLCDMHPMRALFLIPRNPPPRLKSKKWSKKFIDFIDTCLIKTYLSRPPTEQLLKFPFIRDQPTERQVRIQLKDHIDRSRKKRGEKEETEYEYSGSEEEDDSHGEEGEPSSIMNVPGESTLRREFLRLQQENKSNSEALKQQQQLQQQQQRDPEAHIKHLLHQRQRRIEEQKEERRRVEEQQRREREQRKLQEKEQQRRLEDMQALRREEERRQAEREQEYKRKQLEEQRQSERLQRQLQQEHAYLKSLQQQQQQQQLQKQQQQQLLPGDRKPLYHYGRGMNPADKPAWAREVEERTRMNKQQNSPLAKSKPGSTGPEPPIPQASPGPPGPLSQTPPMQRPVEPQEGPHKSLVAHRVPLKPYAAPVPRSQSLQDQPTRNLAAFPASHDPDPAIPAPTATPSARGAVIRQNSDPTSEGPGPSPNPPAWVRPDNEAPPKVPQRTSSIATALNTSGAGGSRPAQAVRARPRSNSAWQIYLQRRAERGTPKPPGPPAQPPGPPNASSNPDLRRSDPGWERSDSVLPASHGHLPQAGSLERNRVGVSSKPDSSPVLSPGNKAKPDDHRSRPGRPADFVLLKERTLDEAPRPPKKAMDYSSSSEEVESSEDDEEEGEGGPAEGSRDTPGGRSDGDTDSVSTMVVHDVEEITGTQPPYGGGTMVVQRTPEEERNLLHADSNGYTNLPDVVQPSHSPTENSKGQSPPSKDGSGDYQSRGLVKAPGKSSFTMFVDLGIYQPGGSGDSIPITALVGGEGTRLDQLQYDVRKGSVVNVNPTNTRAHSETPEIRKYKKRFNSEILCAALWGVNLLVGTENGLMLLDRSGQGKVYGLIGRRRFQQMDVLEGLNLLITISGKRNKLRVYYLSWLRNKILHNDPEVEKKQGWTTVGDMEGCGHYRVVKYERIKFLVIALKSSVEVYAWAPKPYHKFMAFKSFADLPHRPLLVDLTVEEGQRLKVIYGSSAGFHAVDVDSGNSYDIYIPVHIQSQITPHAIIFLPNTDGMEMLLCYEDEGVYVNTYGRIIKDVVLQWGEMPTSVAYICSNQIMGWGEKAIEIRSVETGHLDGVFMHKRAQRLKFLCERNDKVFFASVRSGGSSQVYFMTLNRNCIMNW
T8 sequence (P21802 22-821): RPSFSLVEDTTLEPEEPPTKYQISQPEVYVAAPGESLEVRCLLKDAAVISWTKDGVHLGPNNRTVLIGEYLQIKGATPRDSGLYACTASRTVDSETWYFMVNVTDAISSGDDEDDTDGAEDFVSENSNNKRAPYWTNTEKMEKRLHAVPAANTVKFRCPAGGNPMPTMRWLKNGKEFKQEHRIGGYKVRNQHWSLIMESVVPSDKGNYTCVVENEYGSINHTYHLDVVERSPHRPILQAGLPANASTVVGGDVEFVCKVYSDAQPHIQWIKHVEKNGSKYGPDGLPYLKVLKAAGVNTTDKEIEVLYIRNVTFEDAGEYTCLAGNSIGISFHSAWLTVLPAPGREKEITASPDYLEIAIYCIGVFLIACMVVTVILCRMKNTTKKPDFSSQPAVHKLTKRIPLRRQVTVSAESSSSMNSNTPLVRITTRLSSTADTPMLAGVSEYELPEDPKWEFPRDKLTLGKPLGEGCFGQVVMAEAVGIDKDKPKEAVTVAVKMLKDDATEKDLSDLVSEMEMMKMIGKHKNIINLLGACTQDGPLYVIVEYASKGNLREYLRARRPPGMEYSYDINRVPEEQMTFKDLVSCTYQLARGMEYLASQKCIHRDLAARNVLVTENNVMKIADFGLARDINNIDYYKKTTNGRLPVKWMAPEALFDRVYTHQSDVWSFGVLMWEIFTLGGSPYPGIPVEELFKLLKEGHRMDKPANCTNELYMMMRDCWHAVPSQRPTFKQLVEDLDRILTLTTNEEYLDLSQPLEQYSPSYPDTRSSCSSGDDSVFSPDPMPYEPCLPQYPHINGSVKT
T2 sequence (P54764 20-986): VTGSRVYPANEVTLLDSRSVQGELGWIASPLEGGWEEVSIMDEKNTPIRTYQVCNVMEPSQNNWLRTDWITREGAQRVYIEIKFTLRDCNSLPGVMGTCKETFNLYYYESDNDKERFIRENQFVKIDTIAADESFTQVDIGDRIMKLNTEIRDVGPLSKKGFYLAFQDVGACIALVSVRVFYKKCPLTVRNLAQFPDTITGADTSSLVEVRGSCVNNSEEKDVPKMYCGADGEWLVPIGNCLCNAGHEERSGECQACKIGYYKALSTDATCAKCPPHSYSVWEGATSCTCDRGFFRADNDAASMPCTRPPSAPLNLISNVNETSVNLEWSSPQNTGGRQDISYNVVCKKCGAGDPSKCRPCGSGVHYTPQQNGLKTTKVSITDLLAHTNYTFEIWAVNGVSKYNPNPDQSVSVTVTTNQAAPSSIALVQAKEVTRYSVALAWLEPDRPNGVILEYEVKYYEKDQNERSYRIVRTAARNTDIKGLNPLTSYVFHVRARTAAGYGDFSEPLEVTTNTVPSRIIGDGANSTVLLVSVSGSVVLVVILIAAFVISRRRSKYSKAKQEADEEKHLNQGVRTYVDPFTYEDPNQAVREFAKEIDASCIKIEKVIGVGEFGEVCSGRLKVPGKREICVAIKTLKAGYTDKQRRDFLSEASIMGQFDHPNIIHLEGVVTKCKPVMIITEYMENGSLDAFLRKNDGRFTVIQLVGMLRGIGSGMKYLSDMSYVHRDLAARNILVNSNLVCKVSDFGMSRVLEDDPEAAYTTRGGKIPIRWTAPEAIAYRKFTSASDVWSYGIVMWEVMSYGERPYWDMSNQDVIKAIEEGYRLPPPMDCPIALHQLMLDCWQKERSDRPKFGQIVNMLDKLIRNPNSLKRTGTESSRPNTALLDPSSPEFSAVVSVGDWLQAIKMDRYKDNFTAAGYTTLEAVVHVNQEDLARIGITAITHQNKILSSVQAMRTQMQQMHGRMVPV
T14 sequence (Q13464 whole entry): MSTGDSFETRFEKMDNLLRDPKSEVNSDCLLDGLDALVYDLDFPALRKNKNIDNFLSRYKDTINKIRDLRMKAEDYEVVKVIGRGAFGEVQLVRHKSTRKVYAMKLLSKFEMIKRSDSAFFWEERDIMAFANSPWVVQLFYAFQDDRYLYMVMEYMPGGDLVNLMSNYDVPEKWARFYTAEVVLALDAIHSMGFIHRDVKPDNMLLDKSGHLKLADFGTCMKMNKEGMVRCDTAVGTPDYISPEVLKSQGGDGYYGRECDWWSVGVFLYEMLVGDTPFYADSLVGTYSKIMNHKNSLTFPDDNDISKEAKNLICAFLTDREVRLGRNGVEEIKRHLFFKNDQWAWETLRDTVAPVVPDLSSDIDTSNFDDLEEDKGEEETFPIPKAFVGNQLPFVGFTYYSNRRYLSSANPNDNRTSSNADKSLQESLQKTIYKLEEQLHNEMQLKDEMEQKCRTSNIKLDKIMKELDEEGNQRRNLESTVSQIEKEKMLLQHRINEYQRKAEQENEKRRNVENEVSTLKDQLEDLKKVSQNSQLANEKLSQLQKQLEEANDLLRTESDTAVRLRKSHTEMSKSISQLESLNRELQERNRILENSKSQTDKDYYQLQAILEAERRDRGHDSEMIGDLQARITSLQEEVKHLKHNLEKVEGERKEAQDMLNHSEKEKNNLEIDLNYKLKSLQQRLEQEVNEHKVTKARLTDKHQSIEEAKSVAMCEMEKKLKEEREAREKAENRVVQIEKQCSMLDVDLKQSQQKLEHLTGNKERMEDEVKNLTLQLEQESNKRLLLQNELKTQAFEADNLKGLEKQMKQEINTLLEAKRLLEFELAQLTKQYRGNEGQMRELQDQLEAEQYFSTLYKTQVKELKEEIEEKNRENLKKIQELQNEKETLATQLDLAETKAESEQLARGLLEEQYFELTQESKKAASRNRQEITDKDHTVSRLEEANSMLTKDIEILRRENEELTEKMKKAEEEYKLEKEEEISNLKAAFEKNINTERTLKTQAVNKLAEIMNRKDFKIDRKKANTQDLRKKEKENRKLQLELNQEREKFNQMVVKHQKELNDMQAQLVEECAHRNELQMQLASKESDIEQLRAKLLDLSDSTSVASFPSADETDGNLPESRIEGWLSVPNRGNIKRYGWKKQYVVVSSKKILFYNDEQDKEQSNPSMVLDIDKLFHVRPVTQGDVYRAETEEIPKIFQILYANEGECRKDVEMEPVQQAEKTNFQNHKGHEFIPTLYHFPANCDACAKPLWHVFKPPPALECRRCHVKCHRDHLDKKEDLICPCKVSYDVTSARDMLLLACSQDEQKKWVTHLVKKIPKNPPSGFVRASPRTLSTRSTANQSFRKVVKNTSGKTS

In the case of `Nc1nc(N)c2nc(-c3cccc(O)c3)c(-c3cccc(O)c3)nc2n1` [Compound I, 6,7-bis-(3-hydroxyphenyl)-pteridine-2,4-diamine], the “VEGF signaling culminating in VE-cadherin phosphorylation” value [1] was “interrupt”, the “time for which a single i.v. administration reduced edema formation” value (VEGF-induced edema; Miles assay, varied time between compound and agonist challenge, data not shown) was “at least 4 hours” and the “VEGF-induced vascular permeability / edema formation” value (VEGF-induced edema; rats, Compound I pretreatment (1 mg/kg in FIG. 4)) was “inhibited; also recorded: reduced edema formation”. For the same compound, the “Percent Control, PKCi” value (PKCi) was 105%, the “Percent Control, EphA4” value (EphA4) was 119% and the “Percent Control, EphB2” value (EphB2) was 56%. The “Percent Control, MEK1” value (MEK1) was 94%, the “Percent Control, ALK4” value (ALK4) was 91% and the “Percent Control, Fer” value (Fer) was 80%. For the same compound, the “Percent Control, MINK” value (MINK) was 88%, the “Percent Control, MKK4 (m)” value (MKK4) was 57% and the “Percent Control, FGFR2” value (FGFR2) was 73%. For the same compound, the “Percent Control, ASK1” value (ASK1) was 105%, the “Percent Control, Pyk2” value (Pyk2) was 68% and the “Percent Control, FGFR4” value (FGFR4) was 94%. The “Percent Control, MSK1” value (MSK1) was 92%, the “Percent Control, Fgr” value (Fgr) was 72% and the “Percent Control, ROCK-I” value (ROCK-I) was 93%. The “Percent Control, ROCK-II” value (ROCK-II) was 81%, the “Percent Control, Flt3” value (Flt3) was 80% and the “Percent Control, NEK6” value (NEK6) was 97%. The “Percent Control, PAK4” value (PAK4) was 78%, the “Percent Control, SAPK2b” value (SAPK2b) was 87% and the “Percent Control, IKKa” value (IKKa) was 100%. The “Percent Control, PDGFRa” value (PDGFRa) was 86%, the “Percent Control, SAPK3” value (SAPK3) was 98% and the “Percent Control, PDK1” value (PDK1) was 90%. The “Percent Control, IRAK4” value (IRAK4) was 89%, the “Percent Control, PKA” value (PKA) was 93% and the “Percent Control, TBK1” value (TBK1) was 89%. The remaining activity at 10 µM (PKBy) was 98%, the “Percent Control, Yes” value (Yes) was 30% and the “Percent Control, ZAP-70” value (ZAP-70) was 96%. The “Percent Control, CSK” value (CSK) was 114%.
